Experimental data published in US20220315624A1, “THIOSTREPTON ANALOGS AND METHODS OF MAKING AND USING SAME” (YALE UNIVERSITY, priority 2019, published 2022).
≈ marks a conversion by molar mass, not a printed value. Like-named read-outs stand apart in the source and are kept apart here.

Key:
[1] = test system: E. faecalis ATCC 29212 VSE; assay: MIC broth microdilution; assay type: cell-based; conditions: Enterococcus faecalis, ATCC29212
Protocol: (§1) Twenty-four test agents were shipped to Micromyx and stored at −20° C. until assayed. The compounds were dissolved in 100% DMSO at 6.46 mg/mL prior to testing. Comparator drugs were supplied by Micromyx and were handled as described below:
(§2) The test organisms for the assay were recent clinical isolates or reference strains acquired from the American Type Culture Collection (ATCC; Manassas, Va.). Upon receipt, the isolates were streaked onto Trypticase Soy Agar II+5% sheep blood (TSAB). Colonies were harvested from the plates and a cell suspension was prepared in Trypticase Soy Broth containing cryoprotectant. Aliquots were then frozen at −80° C. Prior to the assay, the frozen seeds of all bacterial isolates to be tested were thawed and streaked for isolation onto TSAB (BD/BBL, Sparks, Md.; Lot No. 9011894), and were incubated overnight at 35° C.
(§3) The test medium for all isolates was cation-adjusted Mueller Hinton broth (CAMHB; BD/BBL; Lot No. 8190586). CAMHB (Cation Adjusted Mueller Hinton Broth) was supplemented with 3% (v/v) lysed horse blood (LHB; Hemostat, Dixon, Calif.; Lot No. 474990) for the testing of streptococci.
(§4) MIC values were determined using a broth microdilution method as recommended by CLSI. Automated liquid handlers (Multidrop 384, Labsystems, Helsinki, Finland; Biomek 2000 and Biomek F/X, Beckman Coulter, Fullerton Calif.) were used to conduct serial dilutions and make liquid transfers.
(§5) The wells of standard 96-well microdilution plates (Costar 3795, Corning Inc., Corning, N.Y.) were filled with 150 μL of the appropriate diluent in columns 2-12 on the Multidrop 384 (DMSO for the thiostrepton analogs, deionized H2O for vancomycin and ceftazidime). These plates were used to prepare the drug “mother plate” which provided the serial drug dilutions for the replicate “daughter plates”. The compounds (300 μL) were dispensed at 101× the highest concentration to be tested into the appropriate row of the “mother plate”. The Biomek 2000 was used to transfer 150 μL of each stock solution from the wells in Column 1 of the mother plate to make ten subsequent 2-fold serial dilutions. The wells of Column 12 contained no drug and served as the organism growth control wells. The daughter plates were loaded with 190 μL of test medium using the Multidrop 384.
(§6) The daughter plates were prepared on the Biomek F/X instrument which transferred […] of drug solution from each well of the mother plate to each corresponding well of each daughter plate in a single step. The wells of the daughter plates ultimately contained 190 μL of media, 2 μL of drug solution, and 10 μL of inoculum prepared as described below. The final concentration of DMSO (if used as a solvent) in the test well was 1%.
(§7) A standardized inoculum of each organism was prepared per CLSI methods. A suspension of organisms from a fresh plate was prepared in CAMHB to equal the turbidity of a 0.5 McFarland standard. The suspensions were diluted 1:20 in CAMHB, or in the case of streptococci CAMHB with LHB. The inoculum for each organism was dispensed into sterile reservoirs divided by length (Beckman Coulter), and the Biomek 2000 was used to inoculate the plates. Daughter plates were placed on the Biomek 2000 work surface reversed so that inoculation took place from low to high drug concentration. The Biomek 2000 delivered 10 μL of standardized inoculum into each well. These dilutions yielded a final cell concentration in the daughter plates of approximately 5.0×10^5 CFU/mL.
(§8) Plates were stacked 3 high, covered with a lid on the top plate, placed in plastic bags, and incubated at 35° C. for 16-20 hr for all organisms except streptococci which were incubated for 20-24 hr. Following incubation, the microplates were removed from the incubator and viewed from the bottom using a plate viewer. The MIC was read and recorded as the lowest concentration of drug that inhibited visible growth of the organism. […]

S. aureus MMX 8088 MRSA = assay: MIC broth microdilution; assay type: cell-based; conditions: Staphylococcus aureus
Protocol: as §1, §2, §3, §4, §5, §6, §7, §8

E. faecium MMX 708 VSE = assay: MIC broth microdilution; assay type: cell-based; conditions: Enterococcus faecium, MMX708VSE
Protocol: as §1, §2, §3, §4, §5, §6, §7, §8

E. faecium MMX 485 VRE = assay: MIC broth microdilution; assay type: cell-based; conditions: Enterococcus faecium
Protocol: as §1, §2, §3, §4, §5, §6, §7, §8

E. faecalis MMX 486 VRE = assay: MIC broth microdilution; assay type: cell-based; conditions: Enterococcus faecalis
Protocol: as §1, §2, §3, §4, §5, §6, §7, §8

[2] = test system: S. pneumoniae ATCC 49619 PISP; assay: MIC broth microdilution; assay type: cell-based; conditions: Streptococcus pneumoniae, ATCC49619, 20 h
Protocol: as §1, §2, §3, §4, §5, §6, §7, §8

S. pyogenes ATCC 19615 = assay: MIC broth microdilution; assay type: cell-based; conditions: Streptococcus pyogenes, ATCC19615, 20 h
Protocol: as §1, §2, §3, §4, §5, §6, §7, §8

[3] = test system: S. aureus ATCC 29213 MSSA; assay: MIC broth microdilution; assay type: cell-based; conditions: Staphylococcus aureus
Protocol: as §1, §2, §3, §4, §5, §6, §7, §8

E. coli ATCC 25922 = assay: MIC broth microdilution; assay type: cell-based; conditions: Escherichia coli, ATCC25922
Protocol: as §1, §2, §3, §4, §5, §6, §7, §8

[4] = Un-inoculated solubility control plate (drug precipitation); assay type: physicochemical; conditions: for Precipitation in CAMHB: at 64 μg/mL in CAMHB
[5] = Aqueous solubility analysis in MOPS buffer; assay type: physicochemical; conditions: aqueous 10 mM MOPS buffer, thermodynamic from solid; after 24 hours in 10 mM aqueous MOPS buffer, pH 7.2
Protocol: A 2 dram vial was loaded with ˜0.5 mg of a thiostrepton derivative and suspended in ˜4 mL of aqueous 10 mM MOPS buffer (pKa 7.2). The suspension was stirred vigorously for 24 h to ensure equilibration, then filtered through a […] centrifuge filtration unit. A 3.0 mL aliquot was concentrated, and the dried residue was diluted with 0.30 mL of 1:1 1,4-dioxane/H2O (10× original concentration necessitated by detection limits). The total UV absorbance (200-300 nm) was measured in triplicate by UPLC runs with a photodiode array detector. A calibration curve for each compound was created using data points from 3 trials each of concentrations in 1:1 1,4-dioxane/H2O ranging from […]. These concentrations were plotted against their respective average absorbances. The experimental concentration of each compound was calculated by dividing the found μg/mL value by the residue concentration factor of 10 to yield the actual solubility value.

[6] = E. faecalis ATCC 29212 VSE, CAMHB, read-out: MIC
[7] = S. aureus MMX 8088 MRSA, CAMHB, read-out: MIC
[8] = E. faecium MMX 708 VSE, CAMHB, read-out: MIC
[9] = E. faecium MMX 485 VRE, CAMHB, read-out: MIC
[10] = E. faecalis MMX 486 VRE, CAMHB, read-out: MIC
[11] = S. pneumoniae ATCC 49619 PISP, CAMHB with 3% lysed horse blood, read-out: MIC
[12] = S. pyogenes ATCC 19615, CAMHB with 3% lysed horse blood, read-out: MIC
[13] = S. aureus ATCC 29213 MSSA, CAMHB, read-out: MIC
[14] = E. coli ATCC 25922, CAMHB, read-out: MIC

Row | Precipitation in CAMHB [4] | MIC [1, 6] | MIC (S. aureus MMX 8088 MRSA; [7]) | MIC (E. faecium MMX 708 VSE; [8]) | MIC (E. faecium MMX 485 VRE; [9]) | MIC (E. faecalis MMX 486 VRE; [10]) | MIC [2, 11] | MIC (S. pyogenes ATCC 19615; [12]) | MIC [3, 13] | MIC (E. coli ATCC 25922; [14]) | Structure (SMILES) | also measured
1 |  |  |  |  |  |  |  |  |  |  | C=C(NC(=O)c1csc(C2=N[C@@H]3c4csc(n4)[C@H]4NC(=O)c5csc(n5)[C@H]([C@](C)(O)[C@@H](C)O)NC(=O)C5CSC(=N5)/C(=C/C)NC(=O)[C@H]([C@@H](C)O)NC(=O)c5csc(n5)[C@]3(CC2)NC(=O)[C@H](C)NC(=O)C(=C)NC(=O)[C@H](C)NC(=O)[C@H]([C@@H](C)CC)N[C@@H]2C=Cc3c([C@H](C)O)cc(nc3[C@H]2O)C(=O)O[C@@H]4C)n1)C(=O)NC(=CNC(=O)c1ccc(OC)cc1)C(N)=O [RJS-07] | MIC [1]: 2 µg/mL (≈ 1.1 µM); MIC (S. aureus MMX 8088 MRSA; MRSA): 2 µg/mL (≈ 1.1 µM); MIC (E. faecium MMX 708 VSE): 1 µg/mL (≈ 0.551 µM); MIC (E. faecium MMX 485 VRE; VRE): 1 µg/mL (≈ 0.551 µM); MIC (E. faecalis MMX 486 VRE; VRE): 1 µg/mL (≈ 0.551 µM); MIC [2]: 0.004 µg/mL (≈ 0.0022 µM); MIC (S. pyogenes ATCC 19615): 0.004 µg/mL (≈ 0.0022 µM); MIC [3]: 1 µg/mL (≈ 0.551 µM); MIC (E. coli ATCC 25922): > 64 µg/mL
2 | distinct precipitation | 0.5 µg/mL (≈ 0.268 µM) | 1 µg/mL (≈ 0.537 µM) | 0.5 µg/mL (≈ 0.268 µM) | 0.5 µg/mL (≈ 0.268 µM) | 0.5 µg/mL (≈ 0.268 µM) | < 0.001 µg/mL | 0.002 µg/mL (≈ 0.00107 µM) | 1 µg/mL (≈ 0.537 µM) | > 64 µg/mL | C=C(NC(=O)c1csc(C2=N[C@@H]3c4csc(n4)[C@H]4NC(=O)c5csc(n5)[C@H]([C@](C)(O)[C@@H](C)O)NC(=O)C5CSC(=N5)/C(=C/C)NC(=O)[C@H]([C@@H](C)O)NC(=O)c5csc(n5)[C@]3(CC2)NC(=O)[C@H](C)NC(=O)C(=C)NC(=O)[C@H](C)NC(=O)[C@H]([C@@H](C)CC)N[C@@H]2C=Cc3c([C@H](C)O)cc(nc3[C@H]2O)C(=O)O[C@@H]4C)n1)C(=O)NC(=CNC(=O)c1ccc(Br)cc1)C(N)=O [RJS-08] | Precipitation in CAMHB in LHB ([4]; at 64 μg/mL in CAMHB in LHB): distinct precipitation
3 | distinct precipitation | 1 µg/mL (≈ 0.557 µM) | 1 µg/mL (≈ 0.557 µM) | 1 µg/mL (≈ 0.557 µM) | 1 µg/mL (≈ 0.557 µM) | 1 µg/mL (≈ 0.557 µM) | 0.015 µg/mL (≈ 0.00835 µM) | 0.015 µg/mL (≈ 0.00835 µM) | 1 µg/mL (≈ 0.557 µM) | > 64 µg/mL | C=C(NC(=O)c1csc(C2=N[C@@H]3c4csc(n4)[C@H]4NC(=O)c5csc(n5)[C@H]([C@](C)(O)[C@@H](C)O)NC(=O)C5CSC(=N5)/C(=C/C)NC(=O)[C@H]([C@@H](C)O)NC(=O)c5csc(n5)[C@]3(CC2)NC(=O)[C@H](C)NC(=O)C(=C)NC(=O)[C@H](C)NC(=O)[C@H]([C@@H](C)CC)N[C@@H]2C=Cc3c([C@H](C)O)cc(nc3[C@H]2O)C(=O)O[C@@H]4C)n1)C(=O)NC(=CNC(=O)COCCOC)C(N)=O [RJS-10] | solubility at 24 h [5]: 19 µg/mL (≈ 10.6 µM)
4 |  | 2 µg/mL (≈ 1.05 µM) | 1 µg/mL (≈ 0.523 µM) | 1 µg/mL (≈ 0.523 µM) | 1 µg/mL (≈ 0.523 µM) | 1 µg/mL (≈ 0.523 µM) | 0.015 µg/mL (≈ 0.00784 µM) | 0.015 µg/mL (≈ 0.00784 µM) | 1 µg/mL (≈ 0.523 µM) | > 64 µg/mL | C=C(NC(=O)c1csc(C2=N[C@@H]3c4csc(n4)[C@H]4NC(=O)c5csc(n5)[C@H]([C@](C)(O)[C@@H](C)O)NC(=O)C5CSC(=N5)/C(=C/C)NC(=O)[C@H]([C@@H](C)O)NC(=O)c5csc(n5)[C@]3(CC2)NC(=O)[C@H](C)NC(=O)C(=C)NC(=O)[C@H](C)NC(=O)[C@H]([C@@H](C)CC)N[C@@H]2C=Cc3c([C@H](C)O)cc(nc3[C@H]2O)C(=O)O[C@@H]4C)n1)C(=O)NC(=CNC(=O)c1cccc(/C=N/OC(C)(C)C(=O)O)c1)C(N)=O [RJS-13] | 
